Assay results published in patent US8933019B2, “Antiviral cell-penetrating peptides” (priority 2008, dated 2015).
Read-outs that look alike come from different tables or passages of the source. Bridge positions count the residues as written; N and C are the ends. Square brackets hold non-standard residues; d marks the D form. Peptide text beside a SMILES is read from it. S5 = C=CCCC[C@](C)(N)C(=O)O

Tests used:
HIV-1RF/L-323-12-3 = conditions: read-out: IC50 (μM ± SD), HIV-1RF/L-323-12-3; PR-resistant isolate, subtype B, MT-2, coreceptor X4
Description: (§1) The inhibitory activity of NYAD-201, and related stapled peptides on infection by laboratory-adapted HIV-1 strains was determined as previously described (Jiang et al. J Exp. Med 174:1557-1563, 1991) with minor modifications. Azidothymidine (AZT) was used as a positive control in the infectivity assays. In brief, 1×10^4 MT-2 cells were infected with HIV-1 at 100 TCID50 (50% tissue culture infective dose) (0.01 MOI [multiplicity of infection]) in 200 μl RPMI 1640 medium containing 10% FBS in the presence or absence of peptides at graded concentrations overnight. The culture supernatants were then removed and fresh media containing freshly prepared test peptide were added. On the fourth day post-infection, 100 μl of culture supernatants were collected from each well, mixed with equal volume of 5% Triton X-100 and tested for p24 antigen by ELISA.
(§2) In addition, NYAD-201, NYAD-202 and NYAD-203 were also tested using several laboratory-adapted and primary isolates in MT-2 cells and PBMC (peripheral blood mononuclear cells), respectively.

HIV-1 AZT-R = conditions: read-out: IC50 (μM ± SD), HIV-1 AZT-R; RT-resistant isolate, subtype B, MT-2, coreceptor X4
Description: as §1, §2

HIV-1 RF = conditions: read-out: IC50 (μM ± SD), HIV-1 RF; laboratory strain, subtype B, MT-2, coreceptor X4
Description: as §1, §2

HIV-1 MN = conditions: read-out: IC50 (μM ± SD), HIV-1 MN; laboratory strain, subtype B, MT-2, coreceptor X4
Description: as §1, §2

HIV-1 SF2 = conditions: read-out: IC50 (μM ± SD), HIV-1 SF2; laboratory strain, subtype B, MT-2, coreceptor R5X4
Description: as §1, §2

HIV-1 IIIB = system: HIV-1 IIIB
Description: as §1, §2

[1] = Cytotoxicity, XTT method, MT-2 cells; format: cell-based, human; conditions: human, read-out: CC50 (μM) ± SD, cytotoxicity in MT-2 cells
Description: (§3) Cytotoxicity of peptides in MT-2 cells and PBMC was measured by the XTT [(sodium 3′-(1-(phenylamino)-carbonyl)-3,4-tetrazolium-bis(4-methoxy-6-nitro) bezenesulfonic acid hydrate)] method as previously described (Jiang et al., 2004). Briefly, for MT-2 cells, 100 μl of a peptide at graded concentrations was added to an equal volume of cells (1×10^5 cells/ml) in 96-well plates followed by incubation at 37° C. for 4 days, which ran parallel to the neutralization assay in MT-2 (except medium was added instead of virus). In the case of PBMC, 5×10^5 cells/ml were used and the cytotoxicity was measured after 7 days. After addition of XTT (PolySciences, Inc.), the soluble intracellular formazan was quantitated colorimetrically at 450 nm 4 hr later with a reference at 620 nm. The percent of cytotoxicity and the CC50 values were calculated as above (Table 2 and Table 3).

HIV-1 89.6 = format: cell-based; conditions: laboratory strain, subtype B, PBMC, coreceptor R5X4; read-out: IC50 (μM ± SD), HIV-1 89.6
Description: (§4) The inhibitory activity of peptides on infection by primary HIV-1 isolates was determined as previously described (Jiang et al., Antimicrob. Agents Chemother. 48:4349-4359, 2004). Peripheral blood mononuclear cells (PBMCs) were isolated from the blood of healthy donors at the New York Blood Center by standard density gradient centrifugation using Histopaque-1077 (Sigma-Aldrich). The cells were cultured at 37° C. for 2 hr. Nonadherent cells were collected and resuspended at 5×10^6 cells/ml RPMI-1640 medium containing 10% FBS, 5 μg/ml PHA, and 100 U/ml IL-2 (Sigma-Aldrich), followed by incubation at 37° C. for 3 days. The PHA-stimulated cells (5×10^4 cells/well) were infected with primary HIV-1 isolates at 500 TCID50 (0.01 MOI) in the absence or presence of peptide inhibitor at graded concentrations. Culture media were changed every 3 days and replaced with fresh media containing freshly prepared inhibitor. The supernatants were collected 7 days post-infection and tested for p24 antigen by ELISA (FIG. 6). The percent inhibition of p24 production, IC50 and IC90 values were calculated by the GraphPad Prism software (GraphPad Software Inc.).
(§5) In addition, NYAD-201, NYAD-202 and NYAD-203 were also tested using several laboratory-adapted and primary isolates in MT-2 cells and PBMC (peripheral blood mononuclear cells), respectively. The inhibition of p24 production in MT-2 cells by NYAD-201 and its analogs were measured over a range of concentrations and the concentration required to inhibit 50% (IC50) of the p24 production was calculated. […] NYAD-201 and its analogs inhibited the laboratory strains with low μM potency (IC50˜2-8 μM), and both R5- and X4-tropic viruses were inhibited with similar potency.

HIV-1 BaL = format: cell-based; conditions: laboratory strain, subtype B, PBMC, coreceptor R5; read-out: IC50 (μM ± SD), HIV-1 BaL
Description: as §4, §5

HIV-1 CMU02 = assay: Inhibition of primary HIV-1 isolate, p24 ELISA, PBMC; format: cell-based; conditions: subtype EA, coreceptor X4, read-out: IC50 (μM ± SD), HIV-1 CMU02
Description: as §4
(§6) NYAD-201, NYAD-202 and NYAD-203 were also tested against a set of primary HIV-1 isolates in PBMC representing mostly group M and one from group O with diverse coreceptor usage. […] The inhibitory activities of the peptides against this diverse range of primary isolates were similar, indicating its effectiveness against a wide range of HIV-1 isolates.

HIV-1 BCF02 = assay: as above; format: cell-based; conditions: (Group 0), coreceptor R5, read-out: IC50 (μM ± SD), HIV-1 BCF02
Description: as §4, §6

HIV-1 93RW024 = assay: as above; format: cell-based; conditions: subtype A, coreceptor R5X4, read-out: IC50 (μM ± SD), HIV-1 93RW024
Description: as §4, §6

HIV-1 92US657 = assay: as above; format: cell-based; conditions: subtype B, coreceptor R5, read-out: IC50 (μM ± SD), HIV-1 92US657
Description: as §4, §6

HIV-1 98CN009 = assay: as above; format: cell-based; conditions: subtype C, coreceptor R5, read-out: IC50 (μM ± SD), HIV-1 98CN009
Description: as §4, §6

HIV-1 93BR020 = assay: as above; format: cell-based; conditions: subtype F, coreceptor R5X4, read-out: IC50 (μM ± SD), HIV-1 93BR020
Description: as §4, §6

HIV-1 92UG029 = assay: as above; format: cell-based; conditions: subtype A, coreceptor X4, read-out: IC50 (μM ± SD), HIV-1 92UG029
Description: as §4, §6

HIV-1 RU570 = assay: as above; format: cell-based; conditions: subtype G, coreceptor R5, read-out: IC50 (μM ± SD), HIV-1 RU570
Description: as §4, §6

HIV-1 93IN101 = assay: as above; format: cell-based; conditions: subtype C, coreceptor R5, read-out: IC50 (μM ± SD), HIV-1 93IN101
Description: as §4, §6

[2] = Solubility, observation in the Jurkat cytotoxicity test; format: physicochemical
Description: (§7) Cytotoxicity was also evaluated in Jurkat cells using a Promega LDH leakage detection kit. Jurkat cells were plated at 10^4 cells/well in a volume of 200 μl. The test was performed after 30 min, 2 hr and 4 hr of exposure to the NYAD-201, NYAD-202 and NYAD-203 compounds.

Jurkat cells = assay: Cytotoxicity, LDH leakage, Jurkat cells; format: cell-based; conditions: 30 min, 2 hr and 4 hr of exposure
Description: as §7

[3] = Cytotoxicity, XTT method, PBMC; format: cell-based; conditions: human
Description: as §3

`CSCC[C@@H]1NC(=O)[C@H](Cc2c[nH]c3ccccc23)NC(=O)[C@@](C)(NC(=O)[C@H](CCCCN)NC(=O)[C@@H](NC(=O)[C@H](C)NC(=O)[C@H](CCC(N)=O)NC(=O)[C@H](C)N)C(C)C)CCCC=CCCC[C@@](C)(C(=O)N[C@H](C(=O)N[C@@H](CC(C)C)C(=O)N[C@@H](CC(C)C)C(=O)N[C@H](C(=O)N[C@@H](C)C(N)=O)C(C)C)[C@@H](C)O)NC(=O)[C@H]([C@@H](C)O)NC1=O` [NYAD-202, AQAVKXWMTXTLLVA] (H-AQAVK[S5]WMT[S5]TLLVA-NH2; staple 6-10) showed an IC50 (HIV-1RF/L-323-12-3) of 3.5 ± 0.6 µM, an IC50 (HIV-1 AZT-R) of 4.53 ± 1.19 µM and an IC50 (HIV-1 RF) of 2.64 ± 0.39 µM. The IC50 (HIV-1 MN) was 2.47 ± 0.71 µM, the IC50 (HIV-1 SF2) was 4.48 ± 0.84 µM and the IC50 (HIV-1 IIIB; read-out: IC50 (μM ± SD), HIV-1 IIIB, laboratory strain, subtype B, MT-2, coreceptor X4) was 2.36 ± 0.33 µM. For the same molecule, the IC50 (HIV-1 IIIB; read-out: IC50 (μM) ± SD, antiviral activity against HIV-1 IIIB, MT-2 cells, p24 production, fourth day post-infection) was 2.36 ± 0.33 µM, the CC50 at 4 days [1] was 30.2 ± 4.32 µM and the IC50 (HIV-1 89.6) was 3.47 ± 0.22 µM. It also gave an IC50 (HIV-1 BaL) of 2.23 ± 0.44 µM, an IC50 (HIV-1 CMU02) of 4.2 ± 0.01 µM and an IC50 (HIV-1 BCF02) of 6.2 ± 1.2 µM. It also gave an IC50 (HIV-1 93RW024) of 3.71 ± 0.19 µM, an IC50 (HIV-1 92US657) of 3.61 ± 0.57 µM and an IC50 (HIV-1 98CN009) of 4.08 ± 0.92 µM. It also gave an IC50 (HIV-1 93BR020) of 2.51 ± 0.43 µM, an IC50 (HIV-1 92UG029) of 3.97 ± 0.47 µM and an IC50 (HIV-1 RU570) of 6.34 ± 2.22 µM. For the same molecule, the IC50 (HIV-1 93IN101) was 5.53 ± 0.39 µM, the Solubility [2] was “not very soluble” and the “Cytotoxicity in Jurkat cells (LDH leakage)” value (Jurkat cells) was “did not demonstrate toxicity”. It also gave a CC50 at 7 days [3] greater than 116 µM.
